# From PubChem BioAssay AID330 (DTP/NCI, 2004)
# “And” between values parts separate entries of the source, which are not always exact repeats. Equal values may be shown once. Toxic doses and inconclusive results are not listed.
# Test system: P388 leukemia ip, CD2F1 mice, survival T/C
# Test: NCI In Vivo Anticancer Drug Screen. Data for tumor model P388 Leukemia (intraperitoneal) in CD2F1 (CDF1) mice
# Conditions: endpoint: median survival time, higher = longer survival
# In short: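 Mice carrying the transplanted tumor received test compound or vehicle. Survival was recorded in each group, and the value is the treated-group measurement divided by that of the vehicle-treated control group.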
# [1] = dose: 60.0 mg/kg/injection, schedule: Q01DX005 (ip), vehicle: saline with Tween-80
# [2] = dose: 120.0 mg/kg/injection, schedule: Q01DX005 (ip), vehicle: saline with Tween-80
# [3] = dose: 240.0 mg/kg/injection, schedule: Q01DX005 (ip), vehicle: saline with Tween-80
# [4] = dose: 50.0 mg/kg/injection, schedule: Q01DX005 (ip), vehicle: saline with Tween-80
# [5] = dose: 100.0 mg/kg/injection, schedule: Q01DX005 (ip), vehicle: saline with Tween-80
# [6] = dose: 200.0 mg/kg/injection, schedule: Q01DX005 (ip), vehicle: saline with Tween-80
# [7] = dose: 12.5 mg/kg/injection, schedule: Q01DX009 (ip), vehicle: saline
# [8] = dose: 25.0 mg/kg/injection, schedule: Q01DX009 (ip), vehicle: saline
# [9] = dose: 50.0 mg/kg/injection, schedule: Q01DX009 (ip), vehicle: saline with Tween-80
# [10] = dose: 100.0 mg/kg/injection, schedule: Q01DX001 (ip), vehicle: saline
# [11] = dose: 100.0 mg/kg/injection, schedule: Q04DX002 (ip), vehicle: Klucel (hydroxypropylcellulose) (HPC)
smiles,measurement,setting,value
C=C(N=[N+]=[N-])c1ccccc1,T/C,"dose: 6.25 mg/kg/injection, schedule: Q01DX009 (ip), vehicle: other",101 % of control
same,T/C,"dose: 12.5 mg/kg/injection, schedule: Q01DX009 (ip), vehicle: other",106 % of control
same,T/C,"dose: 25.0 mg/kg/injection, schedule: Q01DX009 (ip), vehicle: other",112 % of control
same,T/C,"dose: 50.0 mg/kg/injection, schedule: Q01DX009 (ip), vehicle: other",117 % of control
same,T/C,"dose: 100.0 mg/kg/injection, schedule: Q01DX009 (ip), vehicle: other",107 % of control
CCOC(=O)n1c2ccccc2c(=O)n1CCO,T/C,[1],105 % of control
same,T/C,[2],97 % of control
same,T/C,[3],91 % of control
CCS1=C(C(C)=O)C(=O)OC(C)C1 (configuration not stated),T/C,"dose: 50.0 mg/kg/injection, schedule: Q01DX005 (ip), vehicle: saline",100 % of control
same,T/C,"dose: 100.0 mg/kg/injection, schedule: Q01DX005 (ip), vehicle: saline",100 % of control
same,T/C,"dose: 200.0 mg/kg/injection, schedule: Q01DX005 (ip), vehicle: saline",106 % of control
CCOC(=O)CCN(C(C)=O)C(CC(C)C)C(=O)OCC (configuration not stated),T/C,[4],98 % of control
same,T/C,[5],105 % of control
same,T/C,[6],105 % of control
CCC/C=[CH]/[Hg][Cl],T/C,"dose: 6.25 mg/kg/injection, schedule: Q04DX003 (ip), vehicle: other",110 % of control
same,T/C,"dose: 12.5 mg/kg/injection, schedule: Q04DX003 (ip), vehicle: other",110 % of control
C[N+](C)(Cc1ccccc1)c1nnn[n-]1,T/C,"dose: 50.0 mg/kg/injection, schedule: Q01DX001 (ip), vehicle: Klucel (hydroxypropylcellulose) (HPC)",97 % of control
same,T/C,"dose: 100.0 mg/kg/injection, schedule: Q01DX001 (ip), vehicle: Klucel (hydroxypropylcellulose) (HPC)",95 % of control
same,T/C,"dose: 200.0 mg/kg/injection, schedule: Q01DX001 (ip), vehicle: Klucel (hydroxypropylcellulose) (HPC)",105 % of control
COC(=O)/C(C)=C\n1ccccc1=O,T/C,"dose: 60.0 mg/kg/injection, schedule: Q01DX005 (ip), vehicle: saline",97 % of control
same,T/C,"dose: 120.0 mg/kg/injection, schedule: Q01DX005 (ip), vehicle: saline",99 % of control
same,T/C,"dose: 240.0 mg/kg/injection, schedule: Q01DX005 (ip), vehicle: saline",98 % of control
O=C(O)C1Cc2c([nH]c3ccccc23)C(c2cccs2)N1 (configuration not stated),T/C,"dose: 60.0 mg/kg/injection, schedule: Q01DX005 (ip), vehicle: Klucel (hydroxypropylcellulose) (HPC)",100 % of control
same,T/C,"dose: 120.0 mg/kg/injection, schedule: Q01DX005 (ip), vehicle: Klucel (hydroxypropylcellulose) (HPC)",96 % of control
same,T/C,"dose: 240.0 mg/kg/injection, schedule: Q01DX005 (ip), vehicle: Klucel (hydroxypropylcellulose) (HPC)",97 % of control
CC1=CCCCC1=O,T/C,[1],107 % of control
same,T/C,[2],106 % of control
same,T/C,[3],102 % of control
CC(=O)Oc1ccc[nH]c1=S,T/C,[7],101 % of control and 103 % of control
same,T/C,[8],104 % of control and 106 % of control
same,T/C,"dose: 50.0 mg/kg/injection, schedule: Q01DX009 (ip), vehicle: saline",99 % of control and 102 % of control
same,T/C,"dose: 100.0 mg/kg/injection, schedule: Q01DX008 (ip), vehicle: saline",104 % of control and 106 % of control
same,T/C,"dose: 100.0 mg/kg/injection, schedule: Q01DX009 (ip), vehicle: saline",100 % of control and 104 % of control
same,T/C,"dose: 200.0 mg/kg/injection, schedule: Q01DX008 (ip), vehicle: saline",105 % of control and 110 % of control
same,T/C,"dose: 200.0 mg/kg/injection, schedule: Q01DX009 (ip), vehicle: saline",109 % of control and 113 % of control
same,T/C,"dose: 400.0 mg/kg/injection, schedule: Q01DX008 (ip), vehicle: saline",120 % of control
same,T/C,"dose: 400.0 mg/kg/injection, schedule: Q01DX009 (ip), vehicle: saline",96 % of control
CCOC(=O)C1C(=O)C(=O)OC1CC(C)C (configuration not stated),T/C,"dose: 12.5 mg/kg/injection, schedule: Q01DX005 (ip), vehicle: Klucel (hydroxypropylcellulose) (HPC)",109 % of control
same,T/C,"dose: 25.0 mg/kg/injection, schedule: Q01DX005 (ip), vehicle: Klucel (hydroxypropylcellulose) (HPC)",103 % of control
same,T/C,"dose: 50.0 mg/kg/injection, schedule: Q01DX005 (ip), vehicle: Klucel (hydroxypropylcellulose) (HPC)",107 % of control and 113 % of control
COc1ccc2nc3cc(Cl)ccc3c(NCCNCCNCCNc3c4ccc(Cl)cc4nc4ccc(OC)cc34)c2c1,T/C,[9],115 % of control
Cc1ccc(S(=O)(=O)Nc2ccccc2OCCN(CCOc2ccccc2NS(=O)(=O)c2ccc(C)cc2)S(=O)(=O)c2ccc(C)cc2)cc1,T/C,[9],96 % of control
same,T/C,"dose: 100.0 mg/kg/injection, schedule: Q01DX009 (ip), vehicle: saline with Tween-80",99 % of control
same,T/C,"dose: 200.0 mg/kg/injection, schedule: Q01DX009 (ip), vehicle: saline with Tween-80",93 % of control
COc1ccc(N=Nc2ccc(N)c3cccnc23)c(OC)c1,T/C,"dose: 100.0 mg/kg/injection, schedule: Q04DX002 (ip), vehicle: saline with Tween-80",97 % of control
same,T/C,"dose: 200.0 mg/kg/injection, schedule: Q04DX002 (ip), vehicle: saline with Tween-80",106 % of control
same,T/C,"dose: 400.0 mg/kg/injection, schedule: Q04DX002 (ip), vehicle: saline with Tween-80",92 % of control
CCOc1c(N=Nc2ccc(OC)cc2)c(C)nn1C(=S)SC,T/C,"dose: 60.0 mg/kg/injection, schedule: Q01DX005 (ip), vehicle: Klucel + Tween-80",92 % of control
same,T/C,"dose: 120.0 mg/kg/injection, schedule: Q01DX005 (ip), vehicle: Klucel + Tween-80",92 % of control
same,T/C,"dose: 240.0 mg/kg/injection, schedule: Q01DX005 (ip), vehicle: Klucel + Tween-80",89 % of control
CC(C)(CO)NCCNC(C)(C)CO,T/C,[4],98 % of control
same,T/C,[5],90 % of control
same,T/C,[6],100 % of control
COc1cc(CC2COC(=O)C2(O)Cc2ccc(O)c(OC)c2)ccc1O (configuration not stated),T/C,[4],98 % of control
same,T/C,[5],95 % of control
same,T/C,[6],100 % of control
O=C(O)CN(CCN(CC(=O)O)CC(=O)O)CC(=O)O,T/C,"dose: 100.0 mg/kg/injection, schedule: Q04DX003 (ip), vehicle: saline",100 % of control
CCNCCC1(C)Oc2ccccc2O1,T/C,[10],97 % of control
Cc1nc2sc3cc4ccccc4cc3n2c(=O)c1CN1CCCCC1,T/C,"dose: 25.0 mg/kg/injection, schedule: Q04DX002 (ip), vehicle: Klucel (hydroxypropylcellulose) (HPC)",98 % of control
same,T/C,"dose: 50.0 mg/kg/injection, schedule: Q04DX002 (ip), vehicle: Klucel (hydroxypropylcellulose) (HPC)",113 % of control
same,T/C,[11],113 % of control
C=C1CC2(C=C(C)CCC2C(C)C)OC1=O (configuration not stated),T/C,[10],101 % of control
same,T/C,"dose: 200.0 mg/kg/injection, schedule: Q01DX001 (ip), vehicle: saline",101 % of control
same,T/C,"dose: 400.0 mg/kg/injection, schedule: Q01DX001 (ip), vehicle: saline",101 % of control
CC1CC(O)C(CN(C)C)C(C)(C)C1 (configuration not stated),T/C,[4],106 % of control
same,T/C,[5],100 % of control
O=C(N/N=C/c1cccc(O)c1)C(=O)N/N=C/c1cccc(O)c1,T/C,"dose: 50.0 mg/kg/injection, schedule: Q01DX009 (ip), vehicle: water",101 % of control
same,T/C,"dose: 100.0 mg/kg/injection, schedule: Q01DX009 (ip), vehicle: water",100 % of control
same,T/C,"dose: 200.0 mg/kg/injection, schedule: Q01DX009 (ip), vehicle: water",102 % of control
CCOC(=O)Cn1cnc2sc3c(c2c1=O)CCCC3,T/C,[4],100 % of control
same,T/C,[5],98 % of control
same,T/C,[6],89 % of control
O=c1[nH]c(Cl)nc2n[nH]c(Br)c12,T/C,"dose: 100.0 mg/kg/injection, schedule: Q01DX001 (ip), vehicle: saline with Tween-80",98 % of control
same,T/C,"dose: 200.0 mg/kg/injection, schedule: Q01DX001 (ip), vehicle: saline with Tween-80",103 % of control
OCc1c(CO)c2cccn2c2c1cnn2-c1ccccc1,T/C,[1],100 % of control
same,T/C,[2],90 % of control
same,T/C,[3],89 % of control
COC(=O)C1=COC(C)[C@H]2CN3CCc4c([nH]c5cc(OC)ccc45)C3CC12 (some centres not stated),T/C,"dose: 15.0 mg/kg/injection, schedule: Q01DX005 (ip), vehicle: saline with Tween-80",92 % of control
same,T/C,"dose: 30.0 mg/kg/injection, schedule: Q01DX005 (ip), vehicle: saline with Tween-80",91 % of control
same,T/C,[1],88 % of control
Cc1cn(C2CC3[O][Sn]([c]4ccccc4)([c]4ccccc4)[O]CC3O2)c(=O)[nH]c1=O (configuration not stated),T/C,[7],124 % of control
same,T/C,[8],100 % of control
Cc1cccc2c(=O)c(CCl)c(-c3ccccc3)sc12,T/C,[4],103 % of control
same,T/C,[5],116 % of control
same,T/C,[6],119 % of control
O=C(Nc1ccc(Cl)cc1)Nc1nnc(-c2ccccc2Br)o1,T/C,[1],105 % of control
same,T/C,[2],94 % of control
same,T/C,[3],95 % of control
COc1ccc(S(=O)(=O)N/N=C/c2cccc([N+](=O)[O-])c2O)cc1,T/C,[4],100 % of control
same,T/C,[5],100 % of control
same,T/C,[6],95 % of control
COc1ccc2c(c1)[C@@]13CCCCC1[C@@H](C2)NCC3 (some centres not stated),T/C,[11],101 % of control
